Test results from patent publication US4861772A, “Method and composition to treat panic syndrome” (Hoffmann-La Roche Inc., priority 1988, dated 1989).

Key:
[1] = tested on: patients with panic syndrome; assay: Side effects in the clinical study in patients with panic syndrome; format: in vivo, human
Experimental: (§1) The clinical study is a double-blind, parallel group study in which in each case 12 patients with panic syndrome were treated either with compound A, that is, tablets containing 0.5 mg of active substance or with a corresponding placebo. The course of the trial was the following. After examining the inclusion and exclusion criteria and recording the basic data, the patients each received 20 tablets with instructions to take one tablet at the approach or beginning of the next panic attack. The medicaments previously used had been withdrawn before the commencement of the study. In the case of a satisfactory outcome of treatment the initial dosage was to be used a once more. Then, for the second investigation, the investigator was to be consulted. In the case of an unsatisfactory outcome of therapy, the dosage in the case of the second panic attack was to be increased to two tablets, which dosage was to be repeated in the case of success and, in the case of failure, was to be increased to three tablets. […] Patients with ineffective medication were to be discharged from the trial. Patients in whom an effective dosage had been found would use that dose in the next twelve panic states. In cases in which withdrawal phenomena of the preceding treatment played a role, the twelve treatments of the main treatment phase can be extended with an additional twelve dosages in a further phase, additional phase.
(§2) During the treatment, the patients were required to carry a treatment day book. On the basis of the remarks contained therein, the statements of the patients as well as specific observations, the results of the trial at the end of the titration phase (investigation 2), at the end of the main treatment phase (investigation 3) and, if desired, at the end of the additional phase (investigation 4) were introduced into the trial data by the investigator. The following psychiatric scales were filled out as standardized comparative investigations at all points in time of the trial: anxiety scale according to Covi, depression scale according to Raskin, self-evaluated anxiety scale (SAS) and self-evaluated depression scale (SDS) according to Zung, as well as the withdrawal symptom scale (WSS) according to Merz & Ballmer.
The following side effects were found:
^3 MRA = "Mean Risk per Administration", i.e. the risk at which the
particular side effect is incurred by a single intake of the medicament.
From the list of side effects, it is evident that the […] has less benzodiazepine-typical side effects of the sedative and motor type.

patients = assay: Clinically relevant effects noticed by patients (onset); format: in vivo, human; conditions: 1 mg perorally in tablet form; generally
Experimental: (§3) After 1 mg of compound A has been taken perorally in tablet form a maximal active substance level is already reached after 45 minutes. Clinically relevant effects, that is, effects noticed by patients, generally occur already after 10 minutes.

[2] = Plasma level after peroral intake of compound A in tablet form; format: in vivo; conditions: human, po, 1 mg perorally in tablet form
Experimental: as §3

[3] = tested on: patients with panic syndrome; assay: Double-blind, parallel group clinical study in patients with panic syndrome (end point analysis); format: in vivo, human
Experimental: The results of a clinical study will be referred to as an example of the use and the effect of discontinuous therapy of panic attacks by means of compound A.
as §1, §2
In each case, 12 patients were treated with compound A or placebo. In the group treated with compound A, 7 were male and 5 female with an average age of 33±5.4 years, of which--according to the DSM-III classification--2 suffered from panic syndrome without agoraphobia and 10 suffered from panic syndrome with agoraphobia. The diagnosis of a major depression was also established in 6 cases.
The average duration of the disorder amounted to 98±83 months in the group treated with compound A and to 143±164 months in the placebo group. The weekly frequency of panic states was 5.6±3.2 in the group treated with compound A and 7.6±5.6 in the placebo group. In this calculation, a runaway in the placebo group which fell outside the average value and the five-fold standard deviation was not taken into consideration. The average duration of the panic attacks was 27±17 minutes in the group treated with compound A and 25±16 minutes in the placebo group. Nine (9) patients treated with compound A and 10 placebo patients were able to predict attacks with an average prediction time of 11±12 minutes in the group treated with compound A and 10±7 minutes in the placebo group.
Because of the different lengths of the total treatment, average duration 43±27 days in the group treated with compound A and 28±32 days in the placebo group and because of the unequal distribution of the exclusions and drop-outs, the following results are presented in the form of an end point analysis: […]

CC(C)(C)OC(=O)c1ncn2c1[C@@H]1CCCN1C(=O)c1c(Br)cccc1-2 [Compound A, t-butyl (S)-8-bromo-11,12,13,13a-tetrahydro-9-oxo-9H-imidazo[1,5-a]pyrrolo[2,1-c][1,4]benzodiazepine-1-carboxylate]
quality of the observed side effects ([1]; CGI evaluation, in total): only of minimal quality
tolerance ([1]; all together): satisfactory tolerance
Coarse muscular relaxation, No. Pat. ([1]; number of patients, of 12): 1
Dopiness, No. Pat. ([1]; number of patients, of 12): 5
Drowsiness, No. Pat. ([1]; number of patients, of 12): 9
Dry mouth, No. Pat. ([1]; number of patients, of 12): 1
Headache, No. Pat. ([1]; number of patients, of 12): 1
Nausea, No. Pat. ([1]; number of patients, of 12): 1
Slurred speech/"heavy tongue", No. Pat. ([1]; number of patients, of 12): 2
Unsteadiness when walking or standing, No. Pat. ([1]; number of patients, of 12): 4
Coarse muscular relaxation, No. Reg. ([1]; number registered): 2
Dopiness, No. Reg. ([1]; number registered): 60
Drowsiness, No. Reg. ([1]; number registered): 45
Dry mouth, No. Reg. ([1]; number registered): 2
Headache, No. Reg. ([1]; number registered): 2
Nausea, No. Reg. ([1]; number registered): 9
Slurred speech/"heavy tongue", No. Reg. ([1]; number registered): 5
Unsteadiness when walking or standing, No. Reg. ([1]; number registered): 13
duration of side effects as part of the total treatment period ([1]; on average): 0.96±1.01%
total duration of side effects ([1]; on average): 7.8 ± 7.6 h
Coarse muscular relaxation, MRA (Mean Risk per Administration) ([1]; risk per single intake): 0.7%
Dopiness, MRA (Mean Risk per Administration) ([1]; risk per single intake): 21.8%
Drowsiness, MRA (Mean Risk per Administration) ([1]; risk per single intake): 16.4%
Dry mouth, MRA (Mean Risk per Administration) ([1]; risk per single intake): 0.7%
Headache, MRA (Mean Risk per Administration) ([1]; risk per single intake): 0.7%
Nausea, MRA (Mean Risk per Administration) ([1]; risk per single intake): 3.3%
Slurred speech/"heavy tongue", MRA (Mean Risk per Administration) ([1]; risk per single intake): 1.8%
Unsteadiness when walking or standing, MRA (Mean Risk per Administration) ([1]; risk per single intake): 4.7%
time to clinically relevant effects (noticed by patients) (patients): 10 min
Tmax ([2]; read-out: time to maximal active substance level (converted)): 0.75 h
half-life ([2]; read-out: β-half life (converted)): 2.25 h
antipanic activity ([3]; conclusion from the clinical comparison): specific antipanic activity
Δ frequency of attack per week (n) ([3]; n = 12, p < 0.05 vs placebo): -2.6 ± 3.3 n
Average treatment period ([3]; n = 12, p < 0.05 vs placebo (Mann-Whitney U test)): 43 ± 27 days
Δ withdrawal symptom scale (WSS) ([3]; n.s. vs placebo): -3.9 ± 6.8
Δ Covi anxiety scale (outside evaluation) ([3]; p < 0.001 vs placebo): 3.3 ± 3.2
Δ Raskin depression scale (outside evaluation) ([3]; p < 0.001 vs placebo): 1.9 ± 3.2
Δ Zung anxiety scale (self evaluation) ([3]; p < 0.001 vs placebo): 6.4 ± 8.5
Δ Zung depression scale (self evaluation) ([3]; p < 0.001 vs placebo): 4.5 ± 9.0
Average improvement in phobias ([3]; scale as initial intensity, p < 0.001 vs placebo): 2.2 ± 1.0
Reduction in the intensity of attack ([3]; score 4 = complete, 3 = strong, 2 = weak, 1 = no effect, p < 0.01 vs placebo): 3.5 ± 0.9
Average number of tablets at the end of treatment ([3]; tablets of 0.5 mg, n = 12, p < 0.001 vs placebo): 1.4 ± 0.9
secondary panic symptoms in untreated intervals between successive panic attacks ([3]; vs placebo): reduced significantly better than by placebo
